Patent publication US20260184710A1, “CASITAS B-LINEAGE LYMPHOMA PROTOONCOGENE B (CBL-B) DEGRADING COMPOUNDS AND ASSOCIATED METHODS OF USE” (Arvinas Operations, Inc., priority 2022, published 2026)

Biological target: T1, Cbl-b (Homo sapiens, UniProt Q13191)
T1 construct: Cbl-b-HiBit KI Jurkat Cells were purchased from Promega; host or cells: Cbl-b-HiBiT knock-in Jurkat cells
Assay: Cbl-b Degradation Method B (Nano-Glo HiBiT lytic detection)
Format: cell-based
Details: Cbl-b-HiBit KI Jurkat Cells, incubated at least 6-24 hours; for DC50: half maximal degradation, read-out: Cbl-b Degredation Method B IC50; for Dmax: maximum degradation observed, read-out: Cbl-b Degredation Method B Dmax (%)
Outline: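 An 11-point, 3-fold compound dilution was applied for 6-24 hours to Jurkat cells carrying HiBiT-tagged endogenous Cbl-b. Lytic HiBiT luminescence quantified residual protein. Outputs are DC50 and Dmax relative to DMSO control.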

T1 sequence (Q13191 whole entry): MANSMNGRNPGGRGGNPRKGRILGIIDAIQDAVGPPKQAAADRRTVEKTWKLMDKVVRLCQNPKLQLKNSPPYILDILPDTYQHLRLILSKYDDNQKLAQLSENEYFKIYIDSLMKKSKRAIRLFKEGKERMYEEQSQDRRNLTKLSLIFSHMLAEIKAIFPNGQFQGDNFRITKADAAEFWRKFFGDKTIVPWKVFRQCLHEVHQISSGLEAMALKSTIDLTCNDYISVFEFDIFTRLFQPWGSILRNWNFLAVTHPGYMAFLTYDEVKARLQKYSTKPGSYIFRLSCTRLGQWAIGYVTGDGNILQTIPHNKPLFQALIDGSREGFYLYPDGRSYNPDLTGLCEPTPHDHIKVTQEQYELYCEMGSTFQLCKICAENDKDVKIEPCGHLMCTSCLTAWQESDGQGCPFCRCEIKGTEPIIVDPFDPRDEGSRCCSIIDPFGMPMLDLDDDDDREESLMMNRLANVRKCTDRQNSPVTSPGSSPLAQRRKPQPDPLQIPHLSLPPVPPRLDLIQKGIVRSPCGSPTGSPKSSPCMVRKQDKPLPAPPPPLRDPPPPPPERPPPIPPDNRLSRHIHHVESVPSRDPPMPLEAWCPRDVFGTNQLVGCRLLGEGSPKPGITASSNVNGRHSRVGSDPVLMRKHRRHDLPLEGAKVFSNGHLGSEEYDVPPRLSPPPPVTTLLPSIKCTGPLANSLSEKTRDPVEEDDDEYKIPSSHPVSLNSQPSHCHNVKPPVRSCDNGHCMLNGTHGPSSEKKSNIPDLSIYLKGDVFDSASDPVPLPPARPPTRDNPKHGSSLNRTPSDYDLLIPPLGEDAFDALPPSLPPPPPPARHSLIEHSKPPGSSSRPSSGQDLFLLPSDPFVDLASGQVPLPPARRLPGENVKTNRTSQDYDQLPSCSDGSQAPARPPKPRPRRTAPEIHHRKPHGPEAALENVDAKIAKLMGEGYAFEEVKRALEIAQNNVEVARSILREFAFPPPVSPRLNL

Row | Compound | DC50 [nM] | Dmax [%]
1 | Cn1cnnc1CC1(c2cccc(N3Cc4c(cc(CN5CCC(C6CCN(c7ccc8c(c7)C(=O)N(C7CCC(=O)NC7=O)C8=O)CC6)CC5)cc4C(F)(F)F)C3=O)c2)COC1 (stereo not drawn) [Example 26, 2-(2,6-dioxopiperidin-3-yl)-5-(1′-{[2-(3-{3-[(4-methyl-4H-1,2,4-triazol-3-yl)methyl]oxetan-3-yl}phenyl)-3-oxo-7-(trifluoromethyl)-2,3-dihydro-1H-isoindol-5-yl]methyl}-[4,4′-bipiperidin]-1-yl)-2,3-dihydro-1H-isoindole-1,3-dione] | > 500 | 
2 | Cn1cnnc1CC1(c2cccc(N3Cc4c(cc(CN5CCN(C[C@H]6CC[C@H](OC7CCN(c8ccc9c(c8Cl)CN(C8CCC(=O)NC8=O)C9=O)CC7)CC6)CC5)cc4C(F)(F)F)C3=O)c2)COC1 (stereo partly drawn) [Example 24, 3-[4-chloro-1-oxo-5-(4-{[(1r,4r)-4-[(4-{[2-(3-{3-[(4-methyl-4H-1,2,4-triazol-3-yl)methyl]oxetan-3-yl}phenyl)-3-oxo-7-(trifluoromethyl)-2,3-dihydro-1H-isoindol-5-yl]methyl}piperazin-1-yl)methyl]cyclohexyl]oxy}piperidin-1-yl)-2,3-dihydro-1H-isoindol-2-yl]piperidine-2,6-dione] | < 5 | > 70
3 | Cn1cnnc1CC1(c2cccc(N3Cc4c(cc(CN5CCC(COCC6CCN(c7ccc8c(c7)C(=O)N(C7CCC(=O)NC7=O)C8=O)CC6)CC5)cc4C(F)(F)F)C3=O)c2)COC1 (stereo not drawn) [Example 40, 2-(2,6-dioxopiperidin-3-yl)-5-(4-{[(1-{[2-(3-{3-[(4-methyl-4H-1,2,4-triazol-3-yl)methyl]oxetan-3-yl}phenyl)-3-oxo-7-(trifluoromethyl)-2,3-dihydro-1H-isoindol-5-yl]methyl}piperidin-4-yl)methoxy]methyl}piperidin-1-yl)-2,3-dihydro-1H-isoindole-1,3-dione] | > 500 | 

Next, values leading:

Row | DC50 [nM] | Dmax [%] | Compound
4 | < 5 | > 70 | Cc1cc(N2CCC(O[C@H]3CC[C@@H](CN4CCN(C[C@H]5CCCN(Cc6cc7c(c(C(F)(F)F)c6)CN(c6cccc(C8(Cc9nncn9C)COC8)c6)C7=O)C5)C(C)(C)C4)CC3)CC2)c(F)c2c1C(=O)N(C1CCC(=O)NC1=O)C2 (stereo partly drawn) [Example 269, 3-[4-fluoro-7-methyl-1-oxo-5-(4-{[(1r,4r)-4-[(3,3-dimethyl-4-{[(3S)-1-{[2-(3-{3-[(4-methyl-4H-1,2,4-triazol-3-yl)methyl]oxetan-3-yl}phenyl)-3-oxo-7-(trifluoromethyl)-2,3-dihydro-1H-isoindol-5-yl]methyl}piperidin-3-yl]methyl}piperazin-1-yl)methyl]cyclohexyl]oxy}piperidin-1-yl)-2,3-dihydro-1H-isoindol-2-yl]piperidine-2,6-dione]
5 | < 5 | > 70 | Cn1cnnc1C[C@]1(c2cccc(N3Cc4c(cc(CN5CCN(C[C@H]6CC[C@H](OC7CCN(c8cccc9c8n(C)c(=O)n9C8CCC(=O)NC8=O)CC7)CC6)CC5(C)C)cc4C(F)(F)F)C3=O)c2)C[C@H](C#N)C1 (stereo partly drawn) [Example 274, (1r,3r)-3-(3-{6-[(2,2-dimethyl-4-{[(1r,4r)-4-({1-[1-(2,6-dioxopiperidin-3-yl)-3-methyl-2-oxo-2,3-dihydro-1H-1,3-benzodiazol-4-yl]piperidin-4-yl}oxy)cyclohexyl]methyl}piperazin-1-yl)methyl]-1-oxo-4-(trifluoromethyl)-2,3-dihydro-1H-isoindol-2-yl}phenyl)-3-[(4-methyl-4H-1,2,4-triazol-3-yl)methyl]cyclobutane-1-carbonitrile]
6 | > 500 |  | CC1c2nc(N3CCC(O[C@H]4CC[C@H](CN5CCN(Cc6cc(C(F)(F)F)c7c(n6)C(=O)N(c6cccc(C8(Cc9nncn9C)COC8)c6)C7)CC5)CC4)CC3)ccc2C(=O)N1C1CCC(=O)NC1=O (stereo partly drawn) [Example 282, 3-[7-methyl-2-[4-[4-[[4-[[6-[3-[3-[(4-methyl-1,2,4-triazol-3-yl)methyl]oxetan-3-yl]phenyl]-7-oxo-4-(trifluoromethyl)-5H-pyrrolo[3,4-b]pyridin-2-yl]methyl]piperazin-1-yl]methyl]cyclohexoxy]-1-piperidyl]-5-oxo-7Hpyrrolo[3,4-b]pyridin-6-yl]piperidine-2,6-dione]
